Measurements reported in PubChem BioAssay (NCI).
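Five concentrations, 48 hours, 96-well plates. TGI denotes the concentration required for complete inhibition of growth.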

Key:
Assay in all cases: NCI-60 cell line screen, 48 h
A498 renal = tested on: A498 renal
A549 NSCLC = tested on: A549 NSCLC
ACHN renal = tested on: ACHN renal
CAKI-1 renal = tested on: CAKI-1 renal
CCRF-CEM leukemia = tested on: CCRF-CEM leukemia
COLO 205 colon = tested on: COLO 205 colon
DLD-1 colon = tested on: DLD-1 colon
DMS 114 small cell lung = tested on: DMS 114 small cell lung
DMS 273 small cell lung = tested on: DMS 273 small cell lung
EKVX NSCLC = tested on: EKVX NSCLC
HCC-2998 colon = tested on: HCC-2998 colon
HCT-116 colon = tested on: HCT-116 colon
HL-60(TB) leukemia = tested on: HL-60(TB) leukemia
HOP-62 NSCLC = tested on: HOP-62 NSCLC
HOP-92 NSCLC = tested on: HOP-92 NSCLC
HT29 colon = tested on: HT29 colon
IGROV1 ovarian = tested on: IGROV1 ovarian
K-562 leukemia = tested on: K-562 leukemia
KM12 colon = tested on: KM12 colon
KM20L2 colon = tested on: KM20L2 colon
LOX IMVI melanoma = tested on: LOX IMVI melanoma
LXFL 529 NSCLC = tested on: LXFL 529 NSCLC
M14 melanoma = tested on: M14 melanoma
M19-MEL melanoma = tested on: M19-MEL melanoma
MALME-3M melanoma = tested on: MALME-3M melanoma
MOLT-4 leukemia = tested on: MOLT-4 leukemia
NCI-H226 lung = tested on: NCI-H226 lung
NCI-H23 lung = tested on: NCI-H23 lung
NCI-H460 lung = tested on: NCI-H460 lung
NCI-H522 lung = tested on: NCI-H522 lung
OVCAR-3 ovarian = tested on: OVCAR-3 ovarian
OVCAR-4 ovarian = tested on: OVCAR-4 ovarian
OVCAR-5 ovarian = tested on: OVCAR-5 ovarian
RPMI-8226 leukemia = tested on: RPMI-8226 leukemia
RXF 393 renal = tested on: RXF 393 renal
RXF-631 renal = tested on: RXF-631 renal
SF-268 CNS = tested on: SF-268 CNS
SF-295 CNS = tested on: SF-295 CNS
SF-539 CNS = tested on: SF-539 CNS
SK-MEL-2 melanoma = tested on: SK-MEL-2 melanoma
SK-MEL-28 melanoma = tested on: SK-MEL-28 melanoma
SK-MEL-5 melanoma = tested on: SK-MEL-5 melanoma
SK-OV-3 ovarian = tested on: SK-OV-3 ovarian
SN12C renal = tested on: SN12C renal
SNB-19 CNS = tested on: SNB-19 CNS
SNB-75 CNS = tested on: SNB-75 CNS
SNB-78 CNS = tested on: SNB-78 CNS
SR leukemia = tested on: SR leukemia
SW-620 colon = tested on: SW-620 colon
TK-10 renal = tested on: TK-10 renal
U251 CNS = tested on: U251 CNS
UACC-257 melanoma = tested on: UACC-257 melanoma
UACC-62 melanoma = tested on: UACC-62 melanoma
UO-31 renal = tested on: UO-31 renal
XF 498 CNS = tested on: XF 498 CNS
786-0 renal = tested on: 786-0 renal
HCT-15 colon = tested on: HCT-15 colon
HOP-18 NSCLC = tested on: HOP-18 NSCLC
OVCAR-8 ovarian = tested on: OVCAR-8 ovarian

Measured: TGI

CCC(C(=O)O)c1ccc(OC)cc1 (configuration not stated)
not listed: 786-0 renal | HCT-15 colon | HOP-18 NSCLC | OVCAR-8 ovarian
> 100 µM: all other assays above

CCn1c(C)nn2c(=O)c3ccccc3nc2c1=O
not listed: NCI-H226 lung | NCI-H522 lung | RXF 393 renal | RXF-631 renal | SF-268 CNS | SN12C renal | SNB-19 CNS | SR leukemia | UO-31 renal
> 100 µM: all other assays above

CNS(=O)(=O)NNS(=O)(=O)c1ccccc1
not listed: OVCAR-4 ovarian | RXF-631 renal | SNB-78 CNS
> 100 µM: all other assays above

Cc1cc(NS(=O)(=O)c2ccc(Nc3c4ccccc4nc4c(C(=O)N5CCN(CCOS(C)(=O)=O)CC5)cccc34)cc2)no1
not listed: EKVX NSCLC | LOX IMVI melanoma | LXFL 529 NSCLC | NCI-H522 lung | RXF-631 renal | SR leukemia | SW-620 colon | HOP-18 NSCLC
> 100 µM: all other assays above
